These results are taken from patent US11787772B2, “Carboxylic diarythiazepineamines as mixed mu- and delta-opioid receptor agonists” (THE TRUSTEES OF COLUMBIA UNIVERSITY IN THE CITY OF NEW YORK, priority 2017, dated 2023).

Data set [1] concerns the target T1, human mu opioid receptor (MOR) (Homo sapiens, UniProt P35372).
T1 construct: expressed in transfected cells; host or cells: HEK-293T
The data set can be described thus: BRET assay measuring G protein activation, agonist activity at human MOR. Format: cell-based. The procedure:
The diarylthiazepinamine carboxylic acids (9) were tested for agonist activity at the human mu opioid receptor (MOR) and delta opioid receptor (DOR) using bioluminescence resonance energy transfer (BRET) assays measuring G protein activation as previously described (Table 1) (Rives, M.-L. et al. 2012; Negri, A. et al. 2013).
Human MOR cDNA was transfected alongside GααB with RLuc8 inserted at position 91 (GααB—RLuc8), Gβ1 (β1), and Gγ2 fused to the full-length mVenus at its N terminus (mVenus-γ2) into HEK-293T cells (5×10^6 cells/plate) in 10-cm dishes using PEI (Polysciences Inc.; Warrington, PA) in a 1:1 ratio diluted in Opti-MEM (Life Technologies Corp.; Grand Island, NY) to assay for G protein activation as described previously (Rives, M.-L. et al. 2012; Negri, A. et al. 2013). Cells were maintained in Dulbecco's Modified Eagle Medium (high glucose #11965; Life Technologies) supplemented with 10% FBS (Premium Select, Atlanta Biologicals; Atlanta, GA) and 100 U/mL penicillin and 100 μg/mL streptomycin (#15140, Life Technologies). After 24 hours the media was changed, and the experiment was performed 24 hours later (48 hours after transfection).
Transfected cells were dissociated and re-suspended in phosphate-buffered saline (PBS). Approximately 200,000 cells/well were added to a black-framed, white well 96-well plate (#60050; Perkin Elmer; Waltham, MA). The microplate was centrifuged and the cells were re-suspended in PBS. Then 5 μM of the luciferase substrate coelenterazine H was added to each well for 5 minutes. Following coelenterazine H addition, ligands were added and the BRET signal was measured at 5 minutes on a PHERAstar FS plate reader. Quantification of the BRET signal required calculating the ratio of the light emitted by the energy acceptor, mVenus (510-540 nm), over the light emitted by the energy donor, RLuc8 (485 nm). […] Dose response curves were fit using a three-parameter logistics equation in GraphPad Prism 6.
The additional diarylthiazepinamine carboxylic acids (9i, 9j, 9k, and 91) were tested for agonist activity at the human mu opioid receptor (MOR) using bioluminescence resonance energy transfer (BRET) assays measuring G protein activation (Table 2) as previously described (Rives, M.-L. et al. 2012; Negri, A. et al. 2013; Example 2 of the present application).
(In general: In BRET a luciferase serves as donor, and the signal depends on an acceptor being close.)

Data set [2] is described as follows: Solubility determination (Method B), neutral water. The following applies: for solubility at 2 h: distilled water, thermodynamic from solid, neutral water, 20° C., Method B (2 h orbital shaker), read-out: Aqueous Solubility (mg/mL @ 20° C.). The class given is physicochemical. The procedure:
A quantity of the appropriate compound sufficient to saturate the resulting solution was added to distilled water (0.50 mL) and the mixture agitated on an orbital shaker for 2 h at room temperature (20° C.). The mixture was then centrifuged for 5 min. at 21,000×g and the supernatant was carefully removed by syringe and passed through a […] syringe filter. An aliquot (300 μL) of the filtered supernatant was concentrated in vacuo and the mass of the residual solids determined in order to calculate the solubility.

The next data set is described as follows: physchem. The conditions noted are these: 25 °C, thermodynamic from solid. The procedure:
Test compounds (4 mg) were added to 200 μL of one of the tested aqueous solutions (hereinafter—buffer): 100 mM aqueous HCl (pH 1) or 100 mM Na-phosphate buffer (pH 7). The obtained suspensions/solutions with the theoretical concentration of 20 mg/mL were further allowed to equilibrate at 25° C. on a thermostatic orbital shaker for 24 hours and then centrifuged at 6000 rpm for 4 minutes and filtered through HTS filter plates using a vacuum manifold. In parallel, compound dilutions in 50% acetonitrile/HCl and 30% acetonitrile/Na-phosphate buffer mixes were prepared to theoretical concentrations of 0 mg/mL (blank), 0.1 mg/mL, 0.2 mg/mL, and 0.4 mg/mL in duplicates to generate calibration curves falling within the optimum UV absorption range. The filtrates of test compounds were diluted 100-fold with acetonitrile-buffer mixtures before measuring. The filtered supernatant test samples were transferred to 96-well plates and measured for absorbance in the 200-550 nm range with 5 nm step increment. The concentrations of compounds in supernatants were calculated using the measured absorbance and the previously determined calibration curve. Proper absorbance wavelengths for calculations were selected for each compound manually based on absorbance maxima (absolute absorbance unit values for the minimum and maximum concentration points within 0-2.5 OD range).

Another data set concerns male C57BL/6 mice. The data set can be described thus: Analgesic activity in hot plate assay. Format: in vivo, mouse. The procedure:
Male C57BL/6 mice were timed for latency to jump on a hot-plate apparatus set to 55° C., using a 30 s cutoff to prevent tissue damage. Following a baseline test, animals were injected subcutaneously (s.c.) with escalating doses of drug and tested at […] (time of maximal effect). Dose-response curves were fit via nonlinear regression using GraphPad Prism (La Jolla, CA).
In general terms: In hot-plate and tail-flick tests a longer latency is read as antinociception.

Structures are written as SMILES. pEC50: −log10 of the molar value.

T1 sequence (P35372 whole entry): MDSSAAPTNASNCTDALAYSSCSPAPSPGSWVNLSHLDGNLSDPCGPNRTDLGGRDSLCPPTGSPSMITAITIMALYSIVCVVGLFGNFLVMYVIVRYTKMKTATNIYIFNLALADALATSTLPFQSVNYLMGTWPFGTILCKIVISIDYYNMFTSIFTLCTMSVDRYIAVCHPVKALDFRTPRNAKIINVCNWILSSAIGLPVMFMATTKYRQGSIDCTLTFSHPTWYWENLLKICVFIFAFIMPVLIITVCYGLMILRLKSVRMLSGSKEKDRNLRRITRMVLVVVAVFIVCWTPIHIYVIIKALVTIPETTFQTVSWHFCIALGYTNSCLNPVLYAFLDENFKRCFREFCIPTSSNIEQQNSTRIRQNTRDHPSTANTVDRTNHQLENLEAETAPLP

With `CN1c2ccccc2C(NCCCCCCC(=O)O)c2cc(F)c(I)cc2S1(=O)=O.Cl` (centres unmarked) [Compound 9k, 7-((2-fluoro-3-iodo-6-methyl-5,5-dioxido-6,11-dihydrodibenzo [c,f][1,2]thiazepin-11-yl)amino) heptanoic acid hydrochloride salt], the pEC50 (as a rule, −log10 of the EC50, conventionally taken in molar units) in data set [1] is 8.34. Moreover, in data set [1] (dihalo-substituted core), the “MOR potency relative to analogs lacking substitution at position 2” value is listed as “equipotent or more potent”. In addition, in data set [2], the solubility at 2 h worked out at 5.7 mg/mL. For the same compound, the “Solubility relative to monohalo counterpart iodotianeptine” value in data set [2] (neutral unbuffered water) is recorded as 2-3 fold. Also, the solubility was 2700 µg/mL in the data set “physchem” (pH 1, simulated gastric fluid) and 390 µg/mL in the data set “physchem” (pH 7, aqueous buffer). In addition, the ED50 (in general, the midpoint of the dose-response relation) in the data set with male C57BL/6 mice (Mus musculus, sc, hot plate 55° C., male C57BL/6 mice, tested at 15 post-injection) is 1.7 mg/kg. Also, the “Analgesic activity in the mouse hot plate assay” value in the data set with male C57BL/6 mice (much higher potency than tianeptine) was “potent analgesics”.
Consider `CN1c2ccccc2C(NCCCCCCC(=O)O)c2ccc(I)cc2S1(=O)=O.Cl` (centres unmarked) [iodotianeptine, reference compound], for which the solubility at 2 h in data set [2] stood at 2.3 mg/mL. The solubility is less than 100 µg/mL in the data set “physchem” (pH 1, simulated gastric fluid) and 150 µg/mL in the data set “physchem” (pH 7, aqueous buffer).
